Results: patent US11759455B2, “Substituted 1H-imidazo[4,5-b]pyridin-2(3H)-ones and their use as GLUN2B receptor modulators” (JANSSEN PHARMACEUTICA NV, priority 2016, dated 2023)
Like-named read-outs stand apart in the source and are kept apart here.

Molecular target: T1, human GluN1/GluN2B NMDA receptors (Homo sapiens, UniProt Q13224)
T1 construct: expressed in transfected cells
Assay: Cell-based calcium flux (FLIPR) assay on cloned human NR1/NR2B ion channels expressed in mammalian cells (standard and HTS buffer variants);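 also: stable Tet-On inducible cell line, Ca2+ influx triggered by glutamate at about EC40 plus 10 µM glycine, fluorescent dye read-out over 5 min, normalized to control wells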
Conditions: human GluN1/GluN2B

[1] = standard assay buffer (0.5 mM MgCl2 in dye loading buffer; 137 mM NaCl, 4 mM KCl in assay buffer), read-out: NR2B IC50 (μM) standard assay
[2] = HTS assay buffer (1.5 mM MgCl2 in dye loading buffer; 150 mM NaCl, 3 mM KCl in assay buffer), read-out: NR2B IC50 (μM) HTS assay

T1 sequence (Q13224 27-1484, other chains not shown): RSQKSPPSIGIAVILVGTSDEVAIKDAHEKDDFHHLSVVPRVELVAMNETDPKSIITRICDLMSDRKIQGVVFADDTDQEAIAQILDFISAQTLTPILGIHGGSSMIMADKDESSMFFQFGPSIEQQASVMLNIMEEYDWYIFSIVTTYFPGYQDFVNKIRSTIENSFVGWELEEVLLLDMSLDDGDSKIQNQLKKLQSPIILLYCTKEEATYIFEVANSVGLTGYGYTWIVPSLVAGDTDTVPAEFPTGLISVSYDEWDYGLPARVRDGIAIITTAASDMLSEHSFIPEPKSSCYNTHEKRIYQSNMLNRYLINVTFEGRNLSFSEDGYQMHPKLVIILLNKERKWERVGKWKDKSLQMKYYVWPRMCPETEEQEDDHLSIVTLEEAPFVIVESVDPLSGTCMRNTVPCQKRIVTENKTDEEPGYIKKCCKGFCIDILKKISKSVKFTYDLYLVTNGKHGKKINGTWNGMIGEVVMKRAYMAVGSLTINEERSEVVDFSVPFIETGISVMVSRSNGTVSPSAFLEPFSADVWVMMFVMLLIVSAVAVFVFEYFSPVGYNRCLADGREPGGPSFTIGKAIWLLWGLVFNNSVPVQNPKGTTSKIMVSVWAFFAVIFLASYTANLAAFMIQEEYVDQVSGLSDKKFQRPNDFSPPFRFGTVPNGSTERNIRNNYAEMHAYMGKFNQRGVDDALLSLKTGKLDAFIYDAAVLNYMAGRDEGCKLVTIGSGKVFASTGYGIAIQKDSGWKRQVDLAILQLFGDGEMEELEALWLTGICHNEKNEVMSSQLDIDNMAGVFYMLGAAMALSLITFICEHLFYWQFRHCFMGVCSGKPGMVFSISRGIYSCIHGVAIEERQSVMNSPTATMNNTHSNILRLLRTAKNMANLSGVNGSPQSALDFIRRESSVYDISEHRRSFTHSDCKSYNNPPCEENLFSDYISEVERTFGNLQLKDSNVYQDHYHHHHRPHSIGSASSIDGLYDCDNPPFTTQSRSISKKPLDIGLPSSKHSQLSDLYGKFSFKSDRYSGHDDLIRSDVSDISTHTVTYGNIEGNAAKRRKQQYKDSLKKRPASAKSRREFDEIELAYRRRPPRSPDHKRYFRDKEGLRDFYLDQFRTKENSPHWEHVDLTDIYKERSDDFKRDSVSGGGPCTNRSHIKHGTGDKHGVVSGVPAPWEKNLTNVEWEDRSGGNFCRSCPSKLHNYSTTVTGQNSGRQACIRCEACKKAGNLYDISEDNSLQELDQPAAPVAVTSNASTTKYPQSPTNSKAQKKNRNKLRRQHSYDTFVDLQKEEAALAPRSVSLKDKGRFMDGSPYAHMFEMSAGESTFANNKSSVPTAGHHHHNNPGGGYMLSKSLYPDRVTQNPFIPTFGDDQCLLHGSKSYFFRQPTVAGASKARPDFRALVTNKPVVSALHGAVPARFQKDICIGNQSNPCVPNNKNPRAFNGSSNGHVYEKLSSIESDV

IC50 [1] | IC50 [2] | SMILES
0.01 µM | – | Cn1c(=O)n(CC(=O)N2CC(F)(F)C2)c2cc(-c3ccc(F)c(F)c3)cnc21 [Example 416, 1-[2-(3,3-Difluoroazetidin-1-yl)-2-oxo-ethyl]-6-(3,4-difluorophenyl)-3-methyl-imidazo[4,5-b]pyridin-2-one]
0.031 µM | – | Cn1c(=O)n(CC(=O)N2CC(F)(F)C2)c2cc(-c3cccc(F)c3)cnc21 [Example 417, 1-[2-(3,3-Difluoroazetidin-1-yl)-2-oxo-ethyl]-6-(3-fluorophenyl)-3-methyl-imidazo[4,5-b]pyridin-2-one]
0.019 µM | – | Cc1cccc(-c2cnc3c(c2)n(CC(=O)N2CC(F)(F)C2)c(=O)n3C)c1F [Example 418, 1-[2-(3,3-Difluoroazetidin-1-yl)-2-oxo-ethyl]-6-(2-fluoro-3-methyl-phenyl)-3-methyl-imidazo[4,5-b]pyridin-2-one]
0.017 µM | – | Cc1cc(-c2cnc3c(c2)n(CC(=O)N(C)C)c(=O)n3C)ccc1F [Example 420, 2-[6-(4-Fuoro-3-methyl-phenyl)-3-methyl-2-oxo-imidazo[4,5-b]pyridin-1-yl]-N,N-dimethyl-acetamide]
0.053 µM | – | CN(C)C(=O)Cn1c(=O)n(C)c2ncc(-c3ccc(F)c(F)c3)cc21 [Example 421, 2-[6-(3,4-Difluorophenyl)-3-methyl-2-oxo-imidazo[4,5-b]pyridin-1-yl]-N,N-dimethyl-acetamide]
0.01 µM | – | Cn1c(=O)n(CC(=O)N2CCC2)c2cc(-c3ccc(F)c(F)c3)cnc21 [Example 422, 1-[2-(Azetidin-1-yl)-2-oxo-ethyl]-6-(3,4-difluorophenyl)-3-methyl-imidazo[4,5-b]pyridin-2-one]
0.006 µM | – | Cc1c(F)ccc(-c2cnc3c(c2)n(CC(=O)N(C)C)c(=O)n3C)c1F [Example 423, 2-[6-(2,4-Difluoro-3-methyl-phenyl)-3-methyl-2-oxo-imidazo[4,5-b]pyridin-1-yl]-N,N-dimethyl-acetamide]
0.028 µM | – | CN(C)C(=O)Cn1c(=O)n(C)c2ncc(-c3cccc(C(F)(F)F)c3F)cc21 [Example 424, 2-[6-[2-Fluoro-3-(trifluoromethyl)phenyl]-3-methyl-2-oxo-imidazo[4,5-b]pyridin-1-yl]-N,N-dimethyl-acetamide]
0.408 µM | – | CN(C)C(=O)Cn1c(=O)n(C)c2ncc(-c3cccc(F)c3F)cc21 [Example 425, 2-[6-(2,3-Difluorophenyl)-3-methyl-2-oxo-imidazo[4,5-b]pyridin-1-yl]-N,N-dimethyl-acetamide]
0.019 µM | – | CN(C)C(=O)Cn1c(=O)n(C)c2ncc(-c3cccc(C(F)F)c3)cc21 [Example 426, 2-[6-[3-(Difluoromethyl)phenyl]-3-methyl-2-oxo-imidazo[4,5-b]pyridin-1-yl]-N,N-dimethyl-acetamide]
0.041 µM | – | Cc1cccc(-c2cnc3c(c2)n(CC(=O)N(C)C)c(=O)n3C)c1F [Example 427, 2-[6-(2-Fluoro-3-methyl-phenyl)-3-methyl-2-oxo-imidazo[4,5-b]pyridin-1-yl]-N,N-dimethyl-acetamide]
0.126 µM | – | CN(C)C(=O)Cn1c(=O)n(C)c2ncc(-c3cc(F)cc(F)c3)cc21 [Example 428, 2-[6-(3,5-Difluorophenyl)-3-methyl-2-oxo-imidazo[4,5-b]pyridin-1-yl]-N,N-dimethyl-acetamide]
> 10 µM | – | CN(C)C(=O)Cn1c(=O)n(C)c2ncc(-c3cccnc3)cc21 [Example 429, N,N-Dimethyl-2-[3-methyl-2-oxo-6-(3-pyridyl)imidazo[4,5-b]pyridin-1-yl]acetamide]
0.028 µM | – | Cn1c(=O)n(CC(=O)N2CC(F)(F)C2)c2cc(-c3ccc(C(F)(F)F)s3)cnc21 [Example 430, 1-[2-(3,3-Difluoroazetidin-1-yl)-2-oxo-ethyl]-3-methyl-6-[5-(trifluoromethyl)-2-thienyl]imidazo[4,5-b]pyridin-2-one]
0.095 µM | – | CN(C)C(=O)Cn1c(=O)n(C)c2ncc(-c3cc(F)c(F)c(C(F)(F)F)c3)cc21 [Example 431, 2-[6-[3,4-Difluoro-5-(trifluoromethyl)phenyl]-3-methyl-2-oxo-imidazo[4,5-b]pyridin-1-yl]-N,N-dimethyl-acetamide]
0.962 µM | – | NC(=O)Cn1c(=O)[nH]c2ncc(-c3cccc(C(F)(F)F)c3)cc21 [Example 432, 2-[2-Oxo-6-[3-(trifluoromethyl)phenyl]-3H-imidazo[4,5-b]pyridin-1-yl]acetamide]
– | 0.867 µM | COc1cc(F)ccc1-c1cnc2[nH]c(=O)n(CC(N)=O)c2c1 [Example 433, 2-[6-(4-Fluoro-2-methoxy-phenyl)-2-oxo-3H-imidazo[4,5-b]pyridin-1-yl]acetamide]
0.583 µM | – | NC(=O)Cn1c(=O)[nH]c2ncc(-c3ccc(F)c(Cl)c3)cc21 [Example 434, 2-[6-(3-Chloro-4-fluoro-phenyl)-2-oxo-3H-imidazo[4,5-b]pyridin-1-yl]acetamide]
0.264 µM | – | CNC(=O)Cn1c(=O)[nH]c2ncc(-c3cccc(C(F)(F)F)c3)cc21 [Example 435, N-Methyl-2-[2-oxo-6-[3-(trifluoromethyl)phenyl]-3H-imidazo[4,5-b]pyridin-1-yl]acetamide]

IC50 [1] | IC50 [2] | SMILES
– | 4.7 µM | CNC(=O)Cn1c(=O)[nH]c2ncc(-c3ccc(Cl)cc3)cc21 [Example 436, 2-[6-(4-Chlorophenyl)-2-oxo-3H-imidazo[4,5-b]pyridin-1-yl]-N-methyl-acetamide]
0.219 µM | – | CNC(=O)Cn1c(=O)[nH]c2ncc(-c3ccc(F)cc3C)cc21 [Example 437, 2-[6-(4-Fluoro-2-methyl-phenyl)-2-oxo-3H-imidazo[4,5-b]pyridin-1-yl]-N-methyl-acetamide]
– | 0.394 µM | CNC(=O)Cn1c(=O)[nH]c2ncc(-c3cc(C)cc(C)c3)cc21 [Example 438, 2-[6-(3,5-Dimethylphenyl)-2-oxo-3H-imidazo[4,5-b]pyridin-1-yl]-N-methyl-acetamide]
– | 3.37 µM | CNC(=O)Cn1c(=O)[nH]c2ncc(-c3ccc(OC)c(C)c3)cc21 [Example 439, 2-[6-(4-Methoxy-3-methyl-phenyl)-2-oxo-3H-imidazo[4,5-b]pyridin-1-yl]-N-methyl-acetamide]
0.358 µM | – | CNC(=O)Cn1c(=O)[nH]c2ncc(-c3ccc(F)cc3OC)cc21 [Example 440, 2-[6-(4-Fluoro-2-methoxy-phenyl)-2-oxo-3H-imidazo[4,5-b]pyridin-1-yl]-N-methyl-acetamide]
– | 2.44 µM | CCOc1ccccc1-c1cnc2[nH]c(=O)n(CC(=O)NC)c2c1 [Example 441, 2-[6-(2-Ethoxyphenyl)-2-oxo-3H-imidazo[4,5-b]pyridin-1-yl]-N-methyl-acetamide]
– | 0.197 µM | COCCNC(=O)Cn1c(=O)[nH]c2ncc(-c3cccc(C(F)(F)F)c3)cc21 [Example 442, N-(2-Methoxyethyl)-2-[2-oxo-6-[3-(trifluoromethyl)phenyl]-3H-imidazo[4,5-b]pyridin-1-yl]acetamide]
– | 1.32 µM | CCOc1ccc(F)cc1-c1cnc2[nH]c(=O)n(CC(=O)NCCOC)c2c1 [Example 443, 2-[6-(2-Ethoxy-5-fluoro-phenyl)-2-oxo-3H-imidazo[4,5-b]pyridin-1-yl]-N-(2-methoxyethyl)acetamide]
– | 0.747 µM | COCCNC(=O)Cn1c(=O)[nH]c2ncc(-c3ccc(OC)cc3)cc21 [Example 444, N-(2-Methoxyethyl)-2-[6-(4-methoxyphenyl)-2-oxo-3H-imidazo[4,5-b]pyridin-1-yl]acetamide]
– | > 29 µM | COCCNC(=O)Cn1c(=O)[nH]c2ncc(-c3cccnc3)cc21 [Example 445, N-(2-Methoxyethyl)-2-[2-oxo-6-(3-pyridyl)-3H-imidazo[4,5-b]pyridin-1-yl]acetamide]
0.204 µM | – | COCCNC(=O)Cn1c(=O)[nH]c2ncc(-c3ccc(F)cc3OC)cc21 [Example 446, 2-[6-(4-Fluoro-2-methoxy-phenyl)-2-oxo-3H-imidazo[4,5-b]pyridin-1-yl]-N-(2-methoxyethyl)acetamide]
0.184 µM | – | O=C(Cn1c(=O)[nH]c2ncc(-c3cc(F)cc(F)c3)cc21)NC1CC1 [Example 447, N-Cyclopropyl-2-[6-(3,5-difluorophenyl)-2-oxo-3H-imidazo[4,5-b]pyridin-1-yl]acetamide]
0.008 µM | – | O=C(Cn1c(=O)[nH]c2ncc(-c3ccc(F)c(Cl)c3)cc21)NC1CC1 [Example 448, 2-[6-(3-Chloro-4-fluoro-phenyl)-2-oxo-3H-imidazo[4,5-b]pyridin-1-yl]-N-cyclopropyl-acetamide]
– | 0.638 µM | CCOc1cccc(-c2cnc3[nH]c(=O)n(CC(=O)NC4CC4)c3c2)c1 [Example 449, N-Cyclopropyl-2-[6-(3-ethoxyphenyl)-2-oxo-3H-imidazo[4,5-b]pyridin-1-yl]acetamide]
– | 1.76 µM | COc1cccc(-c2cnc3[nH]c(=O)n(CC(=O)NC4CC4)c3c2)c1 [Example 450, N-Cyclopropyl-2-[6-(3-methoxyphenyl)-2-oxo-3H-imidazo[4,5-b]pyridin-1-yl]acetamide]
– | 1.03 µM | COc1ccc(-c2cnc3[nH]c(=O)n(CC(=O)NC4CC4)c3c2)cc1C [Example 451, N-Cyclopropyl-2-[6-(4-methoxy-3-methyl-phenyl)-2-oxo-3H-imidazo[4,5-b]pyridin-1-yl]acetamide]
– | 0.071 µM | COc1cc(F)ccc1-c1cnc2[nH]c(=O)n(CC(=O)NC3CC3)c2c1 [Example 452, N-Cyclopropyl-2-[6-(4-fluoro-2-methoxy-phenyl)-2-oxo-3H-imidazo[4,5-b]pyridin-1-yl]acetamide]
– | 0.1 µM | O=C(Cn1c(=O)[nH]c2ncc(-c3ccc(Cl)cc3)cc21)NC1CC1 [Example 453, 2-[6-(4-Chlorophenyl)-2-oxo-3H-imidazo[4,5-b]pyridin-1-yl]-N-cyclopropyl-acetamide]

SMILES | IC50 [1] | IC50 [2]
CN(C)C(=O)Cn1c(=O)n(C)c2ncc(-c3cccc(C(F)(F)F)c3)cc21 [Example 419, N,N-Dimethyl-2-[3-methyl-2-oxo-6-[3-(trifluoromethyl)phenyl]imidazo[4,5-b]pyridin-1-yl]acetamide] | 0.047 µM | –
